Laboratory results taken from a melting point compilation (Tetko et al.; mined from patent text by program, amines drawn as free bases though some values may be those of a salt).

SMILES	melting point [°C]
COc1cc(Cl)c([N+](=O)[O-])cc1C(=O)NCCC(=O)O	170 to 172
O=C(O)CCCOc1ccc(N2CCN(c3ccncc3)CC2)cc1[N+](=O)[O-]	219 to 220
CN(C)Cc1nc(-c2ncn3c2[C@@H]2CCN2C(=O)c2c-3ccc(F)c2Cl)no1	166 to 169
CC(=O)OCC1OC(n2cc(C)c(-n3cncn3)nc2=O)CC1N=[N+]=[N-] (stereo not given)	143 to 145
N=C1c2c(F)cccc2S(=O)(=O)N1CC1CC1	90 to 93
COc1cc2c(-c3cc4cc(Cl)cnc4[nH]3)cn(C)c2cc1OC	282
CC(C)(C)C(=O)Oc1ccc(-c2nnn(CCCCC(=O)O)n2)cc1	129 to 131
Cc1ccc(C(=O)NC(C)(C)C)cn1	104 to 105
Cc1cc([C@@H]2CCC(=O)N2)on1	90 to 91
Cc1nc(-c2ccc(Br)cc2)n(-c2ccc(S(N)(=O)=O)cn2)n1	221 to 222
Cc1ccc(N2CCN(Cc3c[nH]c4ncccc34)CC2)nc1	204 to 205
CC(C)(O)C#Cc1ccc(C#N)cc1Cl	63 to 65
COc1ccc2c(c1)SC(C#N)C(=O)CO2 (stereo not given)	132 to 133
CS(=O)(=O)OCC(O)(CC(Cl)(Cl)Cl)c1ccccc1 (stereo not given)	128 to 130
CCc1cccc(CNC[C@@H](O)[C@H](Cc2cc(F)cc(F)c2)NC(=O)C2CCC(CS(C)(=O)=O)CC2)c1 (stereo not given in full)	45 to 50
CCCCCCCCCCCCCc1cc(C(=O)OCC)c[nH]1	59.5 to 60.5
CCOC(=O)c1cnc(Nc2ccc(OCC)cc2)[nH]c1=O	263 to 265
CC#CC(O)(C(=O)OC)c1ccccc1 (stereo not given)	64 to 65
COc1ccc(C2CNCc3cc(N)ccc32)cc1OC (stereo not given)	157 to 159

SMILES	melting point [°C]
CO/C=C(/C(=O)OC)c1ccccc1Oc1cc(Cl)nc(Cl)n1	88 to 90
Cc1cc2c(cc1-c1c[nH]c(C=O)c1)C(C)(C)CCC2(C)C	128 to 129
CCCOC(=O)C(Br)=CC1C(C(=O)OC(C#N)c2cccc(Oc3ccccc3)c2)C1(C)C (stereo not given)	64
Clc1ccc(C2(Cn3cncn3)OCCO2)s1	117
COC(=O)c1cc(-c2ccc(S(C)(=O)=O)cc2)n(-c2ccc(F)cc2)c1C	154 to 155
CCOC(=O)c1cnc2c(N)cccc2c1	94 to 96
C[C@H](CS(C)(=O)=O)Nc1n[nH]c2nc(Oc3ccc(F)cc3F)ncc12	178 to 179
CN(C)C(=S)Nc1ccc(NNC=O)cc1	187 to 189
CC(C)OC(OC(C)C)(O[C@H](C)Cn1cnc2c(Cl)nc(N)nc21)P(=O)(O)O	130 to 132
Cc1n[nH]c2ccccc12	110 to 113
CSC(N)=Nc1nncs1	116 to 117
CC(=O)c1ncccc1C(O)=NNC(=O)Nc1cc(F)cc(F)c1	79 to 82
Cc1ncc(N)cc1Nc1nccc(-c2cccnc2)n1	135
Clc1ccc(Cl)c(-c2nnnn2Cc2cccnc2)c1	166 to 168
CCCCCCCCCCCCn1nnnc1C(C(=O)Nc1c(C(C)C)cccc1C(C)C)c1ccccc1 (stereo not given)	113 to 115
O=C1CCC(=O)C1C(=O)CCc1ccc(Cl)c(Cl)c1	126 to 127
CN1CC(C(=O)COC(=O)C(C)(C)C)CC2c3cccc4[nH]cc(c34)CC21 (stereo not given)	155 to 156
CCOC(=O)c1cnn(-c2ccccn2)c1N	92 to 93

Now from value to compound:

melting point [°C]	SMILES
175 to 177	CCOC1(C(N)=O)c2ccccc2S(=O)(=O)N1Cc1ccc(Br)cc1F (stereo not given)
210 to 212	O=C(c1cc(Br)c(OCP(=O)(O)O)c(Br)c1)c1c(Cc2ccccc2)sc2ccccc12
200	CCC(Oc1ccc2nc(NC(=O)NCCN3CCOCC3)sc2c1)c1c(Cl)cccc1Cl (stereo not given)
95 to 98	CC(C)c1nc(-c2ccccc2)nc(-c2ccc(F)cc2)c1C=C(Br)Br
135 to 137	CCOC(=O)c1c(Sc2ccccc2)n(C2CC2)c2c(F)c(F)c(F)cc2c1=O
192	COc1ccc2ccc(N3C(=O)c4ccccc4C3OCC(=O)N3CCOCC3)nc2n1 (stereo not given)
160	Cn1ccc2c(NC(=O)c3ccccc3)cccc21
198 to 200	O=C(O)c1cnc(Cn2cc(C3c4ccccc4C=Cc4ccccc43)c(=S)[nH]c2=O)s1
69 to 71	CCOc1ccc(C)c(NCc2ccccc2)c1
164	CNC(=O)COc1ccc2c(-c3ccccc3F)noc2c1Cl
177 to 178	O=C(O)c1ccccc1-c1nc2cc(-c3ccccc3)ccc2s1
284 to 285	CN1C(C(=O)Nc2ccc(F)cc2)=C(O)c2ccc3ccccc3c2S1(=O)=O
182 to 184	CNC(=O)OCc1c(COC(=O)NC)c(-c2ccc(OC)cc2)n2c1Cc1ccccc1C2
75 to 77	COC(=O)c1cc(CCCNCc2ccccc2)ccc1OCc1ccccc1
44 to 45	Nc1ccccc1Oc1ccccc1Cl
300 to 301	N#Cc1c(CCC(=O)O)oc2cc(O)ccc2c1=O
164 to 165	c1ccc(CN(Cc2ccccc2)c2nccc(-c3ccc(-c4ccc(N(c5ccccc5)c5ccccc5)cc4)cc3)n2)cc1

melting point [°C]	SMILES
141	CC(=O)N[C@@H]1CN2C(=O)N(c3cc(Cl)cc(Cl)c3)C(=O)[C@@]2(Cc2ccc(Br)cc2)C1
196 to 198	Cc1cc(-c2cccnc2)n2ncc(C(=O)c3ccccc3)c2n1
106	CC(=O)SCSCc1cn(C(c2ccccc2)(c2ccccc2)c2ccccc2)nn1
106 to 107	CC(=O)C(Cc1cccc(Br)c1)NC(=O)c1ccc(C)cc1 (stereo not given)
198 to 200	Cc1ccc(CO)cc1NC(=O)c1cccc([N+](=O)[O-])c1
285 to 289	CC(C)[C@H](NC(=O)/C=C/c1cccnc1)C(=O)N[C@@H](Cc1ccccc1)[C@@H](O)[C@H](O)[C@H](Cc1ccccc1)NC(=O)[C@@H](NC(=O)/C=C/c1cccnc1)C(C)C
183 to 186	Cc1c(CC(=O)NOCc2ccccc2)c2cc(OCc3nc4ccccc4s3)ccc2n1Cc1ccc(Cl)cc1
137 to 159	COc1cc2cc3c(Nc4ccc(F)c(Cl)c4)c(C#N)cnc3cc2cc1OCCCl
195 to 197	O=Cc1cccc([N+]([O-])=Cc2cccc([N+](=O)[O-])c2)c1
199 to 203	O=C(CCSCCC(=O)Nc1ccc(Nc2ccccc2)cc1)Nc1ccc(Nc2ccccc2)cc1
67 to 69	O=C(NCCCn1ncnn1)c1ccccc1NS(=O)(=O)c1cccc(C(F)(F)F)c1
187 to 189	O=C(OC1COC(OC(=O)c2ccccc2)CO1)c1ccccc1 (stereo not given)
186 to 189	c1ccc(Oc2cccc(Nc3nnc(Cc4ccncc4)c4ccccc34)c2)cc1
182 to 183	COc1ccc(Cn2cnc3c(-c4ccco4)nc([N+](=O)[O-])nc32)cc1
134 to 135	CNC(=O)C(=O)CCCCCCS(=O)(=O)c1ccc(-c2ccccc2)cc1
155 to 157	N#Cc1ccc(S(=O)(=O)Nc2cccnc2Nc2ccccc2)cc1
